# Results reported in patent US20150284430A1, “APPLICATION OF SP PEPTIDE OR DERIVATIVE THEREOF IN PREPARING MEDICINES FOR PREVENTING OR TREATING ASTHMA” (priority 2012, published 2015).
# System: allergic asthma mouse model induced by a combination of ovalbumin and adjuvant
# Assay: Lung tissue histopathologic examination and lesion score, ovalbumin/aluminium hydroxide allergic asthma mouse model
# Assay type: in vivo
# Details: positive medicines group, dexamethasone 0.9 μg/kg·d i.p. every other day x15 from week 15
# Procedure: Preparation of sensitized liquid: prepare in a proportion of dissolving 10 ug ovalbumin and 2 mg aluminium hydroxide in 0.5 ml physiological saline, and use it right after being prepared.
# On day 1, day 7 and day 14, the mice of all groups (the model group, the preventive administration groups, the treatment administration groups, and the positive medicines group) apart from the blank control group are injected intraperitoneally with 0.5 ml freshly prepared sensitized liquid. The blank control group is injected intraperitoneally with an equal volume of physiological saline.
# Since day 21 (i.e., starting from week 4), the mice of all groups apart from the blank control group are placed in a 16 L closed container every fourth days, make the mice inhale 1 wt % ovalbumin physiological saline by ultrasonic nebulization, with an inhalation duration of 25 min/d and a nebulization flow rate of 3 ml/min, for twice a week to induce asthma, and the process continues until week 19. […]
# Lung tissue lesions (including bronchia and perivascular interstitial edema, alveolar wall congestion or emphysema) are marked respectively as 1, 2, 3 and 4 in ascending order of severity, 0 stands for no obvious lesions, and 0.5 for extreme mild lesions. All scores are accumulated, and a mean score (±SD) of each mouse in each group is calculated, and a higher score indicates a more severe level of lesions. […]
compound,measurement,value
"C[C@@H]1C[C@H]2[C@@H]3CCC4=CC(=O)C=C[C@]4(C)[C@@]3(F)[C@@H](O)C[C@]2(C)[C@@]1(O)C(=O)CO [positive drug, dexamethasone]","inflammatory cells infiltration (histopathology, FIG. 6)",infiltration with a few inflammatory cells
same,"pulmonary interstitial edema (histopathology, FIG. 6)",mild pulmonary interstitial edema
